Assay results: ChEMBL document CHEMBL1138886, “Dissociated nonsteroidal glucocorticoid receptor modulators; discovery of the agonist trigger in a tetrahydronaphthalene-benzoxazine series” (J Med Chem, 2006)
Activity calls are given as the source filed them. No cut-off for these calls is given here.

Columns and labels:
Glucocorticoid receptor [1] = target: T1, Glucocorticoid receptor (Homo sapiens, UniProt P04150)
T1 sequence (P04150 whole entry): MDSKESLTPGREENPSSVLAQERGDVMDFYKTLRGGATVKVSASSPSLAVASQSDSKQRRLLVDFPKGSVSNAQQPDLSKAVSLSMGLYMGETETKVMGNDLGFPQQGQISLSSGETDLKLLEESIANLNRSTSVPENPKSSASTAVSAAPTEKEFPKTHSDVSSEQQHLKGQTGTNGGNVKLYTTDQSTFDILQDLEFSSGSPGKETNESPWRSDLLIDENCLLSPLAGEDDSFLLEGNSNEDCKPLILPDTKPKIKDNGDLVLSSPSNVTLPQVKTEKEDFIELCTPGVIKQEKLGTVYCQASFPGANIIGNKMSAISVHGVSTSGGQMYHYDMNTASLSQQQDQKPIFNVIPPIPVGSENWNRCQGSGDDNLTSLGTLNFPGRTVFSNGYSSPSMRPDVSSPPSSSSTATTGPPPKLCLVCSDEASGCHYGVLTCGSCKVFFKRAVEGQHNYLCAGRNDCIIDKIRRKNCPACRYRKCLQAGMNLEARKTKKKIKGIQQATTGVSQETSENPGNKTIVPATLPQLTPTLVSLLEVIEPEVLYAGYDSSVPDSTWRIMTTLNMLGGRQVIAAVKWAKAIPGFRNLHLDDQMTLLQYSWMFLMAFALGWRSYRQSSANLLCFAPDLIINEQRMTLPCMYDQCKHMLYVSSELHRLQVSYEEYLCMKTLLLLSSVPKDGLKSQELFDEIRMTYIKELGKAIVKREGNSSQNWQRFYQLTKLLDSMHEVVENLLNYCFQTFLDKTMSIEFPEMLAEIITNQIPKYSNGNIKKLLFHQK

Glucocorticoid receptor [2] = target: T1, Glucocorticoid receptor; remark: listed apart in the source
Description: Agonist activity at GR assessed as NF-kappaB-mediated transrepression of secreted placental alkaline phosphatase gene in human A549 cells

[3] = target: T2, Glucocorticoid receptor (Homo sapiens) (UniProt P04150); experiment: Selectivity for MMTV transactivation assay over NF-kappaB transrepression assay for GR agonism in A549 cells; type: functional, cell-based
T2 sequence (whole entry): T1 sequence (P04150 whole entry)

Glucocorticoid receptor [4] = target: T1, Glucocorticoid receptor; remark: listed apart in the source
Glucocorticoid receptor [5] = target: T1, Glucocorticoid receptor; remark: listed apart in the source
Mus musculus = experiment: Anti-inflammatory activity against oxazolone-induced ear skin delayed types hypersensitivity model in topically dosed BALB/c mouse; type: functional
[6] = target: Estrogen receptor (Homo sapiens) (UniProt Q92731+P03372); experiment: Activity at ER; type: protein assay
Homo sapiens [7] = species on record: Homo sapiens; experiment: Selectivity for GR over AR by binding assay
Homo sapiens [8] = species on record: Homo sapiens; experiment: Selectivity for GR over AR by functional assay
Homo sapiens [9] = species on record: Homo sapiens; experiment: Selectivity for GR in NF-kappaB transrepression assay over MR antagonism; type: functional
Homo sapiens [10] = species on record: Homo sapiens; experiment: Selectivity for GR over PR by binding assay
Homo sapiens [11] = species on record: Homo sapiens; experiment: Selectivity for GR over PR by functional assay

SMILES	IC50 (Glucocorticoid receptor [1])	IC50 (Glucocorticoid receptor [2])	IC50 (Glucocorticoid receptor [5])	other results
Cc1noc(=O)c2ccc(NC(=O)C(O)(CC3CCCc4c(C#N)cccc43)C(F)(F)F)cc12 (centres undefined)	0.0158 µM	> 1 µM	–	–
CCCC1(CC(O)(C(=O)Nc2ccc3c(=O)onc(C)c3c2)C(F)(F)F)CCCc2ccccc21 (centres undefined)	0.00562 µM	0.00468 µM	0.0251 µM	Efficacy [3]: 67%; EC50 (Glucocorticoid receptor [4]): 0.02 µM
COc1cccc2c1CCCC2CC(O)(C(=O)Nc1ccc2c(=O)onc(C)c2c1)C(F)(F)F (centres undefined)	0.0126 µM	> 1 µM	–	–
CCC1(CC(O)(C(=O)Nc2ccc3c(=O)onc(C)c3c2)C(F)(F)F)CCCc2ccccc21 (centres undefined)	0.00617 µM	0.00501 µM	0.2 µM	ED50 (Mus musculus): 5 µg; EC50 (Glucocorticoid receptor [4]): 0.00912 µM
Cc1noc(=O)c2ccc(NC(=O)C(O)(CC3CCCc4c(Br)cccc43)C(F)(F)F)cc12 (stereo in doubt; 23a)	0.0158 µM	–	0.794 µM	–
Cc1noc(=O)c2ccc(NC(=O)C(O)(CC3CCCc4cc([N+](=O)[O-])ccc43)C(F)(F)F)cc12 (centres undefined)	0.126 µM	> 1 µM	–	–
Cc1noc(=O)c2ccc(NC(=O)C(O)(CC3CCCc4c(F)cccc43)C(F)(F)F)cc12 (centres undefined)	0.0158 µM	> 1 µM	0.501 µM	–
Cc1noc(=O)c2ccc(NC(=O)C(O)(CC3(C(C)(C)C)CCCc4ccccc43)C(F)(F)F)cc12 (centres undefined)	0.0115 µM	> 10 µM	0.776 µM	–
Cc1noc(=O)c2ccc(NC(=O)C(O)(CC3CCCc4cc(F)ccc43)C(F)(F)F)cc12 (centres undefined)	0.0126 µM	> 1 µM	–	–
Cc1noc(=O)c2ccc(NC(=O)C(O)(CC3CCCc4c3cccc4[N+](=O)[O-])C(F)(F)F)cc12 (centres undefined)	0.0126 µM	> 1 µM	–	–
CCC1(CC(O)(C(=O)Nc2ccc3c(=O)onc(C)c3c2)C(F)(F)F)CCOc2ccccc21 (stereo in doubt; 38)	0.0117 µM	> 10 µM	–	–
Cc1noc(=O)c2ccc(NC(=O)C(O)(CC3(C(C)C)CCCc4ccccc43)C(F)(F)F)cc12 (centres undefined)	0.00479 µM	0.00295 µM	0.129 µM	Efficacy [3]: 34%; EC50 (Glucocorticoid receptor [4]): 0.0186 µM
CCC1(CC(O)(C(=O)Nc2ccc3c(=O)onc(C)c3c2)C(F)(F)F)CCCc2cc([N+](=O)[O-])ccc21 (centres undefined)	0.00794 µM	> 10 µM	0.794 µM	–
CCC1(CC(O)(C(=O)Nc2ccc3c(=O)onc(C)c3c2)C(F)(F)F)CCCc2ccc([N+](=O)[O-])cc21 (centres undefined)	0.00631 µM	> 10 µM	0.316 µM	–
CCC1(CC(O)(C(=O)Nc2ccc3c(=O)onc(C)c3c2)C(F)(F)F)CCOc2ccccc21 (stereo in doubt; 37)	0.0166 µM	–	–	–
Cc1noc(=O)c2ccc(NC(=O)C(O)(CC3(CC(C)C)CCCc4ccccc43)C(F)(F)F)cc12 (centres undefined)	–	–	–	EC50 (Glucocorticoid receptor [4]): > 1 µM
Cc1cccc2c1CCCC2CC(O)(C(=O)Nc1ccc2c(=O)onc(C)c2c1)C(F)(F)F (stereo in doubt; 19a)	0.02 µM	–	0.794 µM	–
CCC1(CC(O)(C(=O)Nc2ccc3c(=O)onc(C)c3c2)C(F)(F)F)CCCc2c([N+](=O)[O-])cccc21 (centres undefined)	0.00501 µM	> 10 µM	0.251 µM	–
Cc1noc(=O)c2ccc(NC(=O)C(O)(CC3CCCc4c(Br)cccc43)C(F)(F)F)cc12 (stereo in doubt; 23e)	0.0251 µM	–	–	–
Cc1noc(=O)c2ccc(NC(=O)C(O)(CC3CCCc4c(Cl)cccc43)C(F)(F)F)cc12 (stereo in doubt; 20b)	0.00501 µM	> 1 µM	0.398 µM	–
Cc1noc(=O)c2ccc(NC(=O)C(O)(CC3CCCc4c(Cl)cccc43)C(F)(F)F)cc12 (stereo in doubt; 20a)	0.0158 µM	–	–	–
Cc1noc(=O)c2ccc(NC(=O)C(O)(CC3CCCc4ccccc43)C(F)(F)F)cc12 (centres undefined)	0.00794 µM	> 1 µM	–	–

SMILES	IC50 (Glucocorticoid receptor [1])	IC50 (Glucocorticoid receptor [2])	IC50 (Glucocorticoid receptor [5])	other results
Cc1noc(=O)c2ccc(NC(=O)C(O)(CC3CCCc4c(N)cccc43)C(F)(F)F)cc12 (centres undefined)	0.0251 µM	> 1 µM	2 µM	–
CCC(CC)C1(CC(O)(C(=O)Nc2ccc3c(=O)onc(C)c3c2)C(F)(F)F)CCCc2ccccc21 (centres undefined)	0.00525 µM	0.0012 µM	0.0661 µM	ED50 (Mus musculus): 0.35 µg; Efficacy [3]: 50%; Activity [6]: inactive; Selectivity ratio (Homo sapiens [7]): > 50; Selectivity ratio (Homo sapiens [8]): > 50; Selectivity ratio (Homo sapiens [9]): > 100; Selectivity ratio (Homo sapiens [10]): 10; Selectivity ratio (Homo sapiens [11]): 10; EC50 (Glucocorticoid receptor [4]): 0.00631 µM
Cc1noc(=O)c2ccc(NC(=O)C(O)(CC3(C4CCCCC4)CCCc4ccccc43)C(F)(F)F)cc12 (centres undefined)	0.00851 µM	0.00331 µM	0.2 µM	EC50 (Glucocorticoid receptor [4]): 0.0209 µM
Cc1noc(=O)c2ccc(NC(=O)C(O)(CC3CCCc4c(Br)cccc43)C(F)(F)F)cc12 (stereo in doubt; 23b)	0.0398 µM	–	–	–
Cc1noc(=O)c2ccc(NC(=O)C(O)(CC3CCCc4c(Br)cccc43)C(F)(F)F)cc12 (stereo in doubt; 23c)	0.00631 µM	–	–	–
Cc1noc(=O)c2ccc(NC(=O)C(O)(CC3(C)CCCc4ccccc43)C(F)(F)F)cc12 (stereo in doubt; 35d)	0.01 µM	0.02 µM	0.398 µM	EC50 (Glucocorticoid receptor [4]): > 10 µM
Cc1noc(=O)c2ccc(NC(=O)C(O)(CC3(C)CCCc4ccccc43)C(F)(F)F)cc12 (stereo in doubt; 35b)	0.00794 µM	1.26 µM	–	–
CCCCC1(CC(O)(C(=O)Nc2ccc3c(=O)onc(C)c3c2)C(F)(F)F)CCCc2ccccc21 (centres undefined)	0.00309 µM	0.00661 µM	–	EC50 (Glucocorticoid receptor [4]): > 1 µM
Cc1noc(=O)c2ccc(NC(=O)C(O)(CC3CCCc4ccc(F)cc43)C(F)(F)F)cc12 (centres undefined)	0.0158 µM	> 1 µM	–	–
Cc1noc(=O)c2ccc(NC(=O)C(O)(CC3CCCc4ccc([N+](=O)[O-])cc43)C(F)(F)F)cc12 (centres undefined)	0.02 µM	> 1 µM	–	–
Cc1noc(=O)c2ccc(NC(=O)C(O)(CC3(c4ccccc4)CCCc4ccccc43)C(F)(F)F)cc12 (centres undefined)	0.0145 µM	> 10 µM	1.38 µM	–
CCC1(CC(O)(C(=O)Nc2ccc3c(=O)onc(C)c3c2)C(F)(F)F)CCCCc2ccccc21 (centres undefined)	0.01 µM	0.00794 µM	–	EC50 (Glucocorticoid receptor [4]): > 10 µM
Cc1noc(=O)c2ccc(NC(=O)C(O)(CC3(C4CCC4)CCCc4ccccc43)C(F)(F)F)cc12 (centres undefined)	0.00955 µM	0.0049 µM	0.166 µM	EC50 (Glucocorticoid receptor [4]): 0.0174 µM
C[C@@H]1C[C@H]2[C@@H]3CCC4=CC(=O)C=C[C@]4(C)[C@@]3(F)[C@@H](O)C[C@]2(C)[C@@]1(O)C(=O)CO [DEXAMETHASONE]	–	–	–	ED50 (Mus musculus): 0.27 µg
Cc1noc(=O)c2ccc(NC(=O)C(O)(CC3(C4CC4)CCCc4ccccc43)C(F)(F)F)cc12 (centres undefined)	0.00468 µM	0.00955 µM	0.204 µM	EC50 (Glucocorticoid receptor [4]): 0.0398 µM
Cc1noc(=O)c2ccc(NC(=O)C(O)(CC3CCCc4c(Br)cccc43)C(F)(F)F)cc12 (stereo in doubt; 23f)	0.631 µM	> 1 µM	–	–
Cc1noc(=O)c2ccc(NC(=O)C(O)(CC3(C)CCCc4ccccc43)C(F)(F)F)cc12 (stereo in doubt; 35c)	0.251 µM	> 10 µM	–	–
Cc1noc(=O)c2ccc(NC(=O)C(O)(CC3CCCc4cccc(F)c43)C(F)(F)F)cc12 (centres undefined)	0.0316 µM	> 1 µM	–	–
Cc1cccc2c1CCCC2CC(O)(C(=O)Nc1ccc2c(=O)onc(C)c2c1)C(F)(F)F (stereo in doubt; 19b)	0.00316 µM	> 1 µM	0.2 µM	–
Cc1noc(=O)c2ccc(NC(=O)[C@](O)(C[C@@]3(C4CCCC4)CCCc4ccccc43)C(F)(F)F)cc12	0.00813 µM	0.00204 µM	0.0537 µM	ED50 (Mus musculus): 0.05 µg; Activity [6]: inactive; Selectivity ratio (Homo sapiens [7]): > 50; Selectivity ratio (Homo sapiens [8]): > 50; Selectivity ratio (Homo sapiens [9]): > 100; EC50 (Glucocorticoid receptor [4]): 0.0178 µM
Cc1noc(=O)c2ccc(NC(=O)C(O)(CC3(C)CCCc4ccccc43)C(F)(F)F)cc12 (stereo in doubt; 35a)	0.316 µM	> 10 µM	–	–
